Source: a melting point compilation (Tetko et al.)
Peptide text beside a SMILES is read from it.

Row | melting point [°C] | Structure (SMILES)
1 | 220 | O=c1[nH]nc2oc3ccccc3cc1-2
2 | 93 | Cc1cc(C(c2ccc(C)o2)c2ccc(C)o2)c(O)c([N+](=O)[O-])c1
3 | -67 | CCCCCCCCOC(=O)CCCCCCCCC(=O)OCCCCCCCC
4 | 119 | O=C(O)CCc1ccc(Cl)cc1
5 | 108 | O=Cc1cc(I)cc(I)c1O
6 | 155 | CCCCCN=C(N)NNC=C1C=Nc2ccc(CO)cc21
7 | 114 to 116 | CC(=O)C=C(C)N1CCCC1
8 | 80.5 | OC1CCCCCCCCCCCCCC1
9 | 10 to 11 | CC(C)N(C=O)C(C)C
10 | 112 | Cc1ccc(S(=O)(=O)NCCN(CCN(CCNS(=O)(=O)c2ccc(C)cc2)S(=O)(=O)c2ccc(C)cc2)S(=O)(=O)c2ccc(C)cc2)cc1
11 | 84 | CS(=O)(=O)CC#N
12 | 220 | COC(=O)c1cc2cc3cc(C(=O)OC)c(C(=O)OC)cc3cc2cc1C(=O)OC
13 | 312 | Nc1ccc(C(=O)O)cn1
14 | 240 | O=C1c2ccccc2NC1(OC1(c2ccccn2)Nc2ccccc2C1=O)c1ccccn1 (configuration not stated)
15 | 48 | CCN(CC)c1ccc(C(C)=O)cc1
16 | 119 | Cc1ccc2oc3c(c2c1)-c1oc(C)cc1C(C)(c1ccccc1)CC3 (configuration not stated)
17 | 136 to 141 | C=CC(=O)NC(CO)(CO)CO
18 | 142 to 144 | Cc1nc(-c2ccccn2)nc(O)c1Cl
19 | 87.6 | CCCCCCCCCCCCCCCC(=O)Oc1ccc(N=Cc2cccnc2)cc1
20 | 46 to 49 | Cc1ccc(C(=O)CCCCl)cc1C
21 | 88 | Nc1cccc(C(F)(F)F)n1
22 | 210 to 215 | N#CCc1nc2ccccc2[nH]1
23 | 64 | CCCCCCCCCCCCCCCC(=O)OC(=O)CCCCCCCCCCCCCCC
24 | 170 to 171 | CC1=C[C@@]2(C)O[C@@H](c3ccccc3)[C@@H]1C(C#N)(C#N)C2(C#N)C#N
25 | 111 to 113 | NNc1ncc(C(=O)OCc2ccc(Cl)cc2)c(C(F)(F)F)n1
26 | 142 to 145 | c1ccc2c(c1)-c1ccccc1C2c1ccncc1

Row | melting point [°C] | Structure (SMILES)
27 | 92 to 94 | O=C(CCl)Nc1ccccc1C(F)(F)F
28 | -73 | CCCCCCC1CCCC1
29 | -43 | O=C(OC(=O)C(F)(F)C(F)(F)C(F)(F)F)C(F)(F)C(F)(F)C(F)(F)F
30 | 104 | CCC(=O)Oc1ccc(C(CC)=C(CC)c2ccc(OC(=O)CC)cc2)cc1
31 | 45 | BrC(c1ccccc1)c1ccccc1
32 | 118 to 120 | Cc1n[nH]c(C)c1CCBr
33 | 143 | CC12CCCCC1CCC1C2CCC2(C)C1CCC21OCCO1 (configuration not stated)
34 | 300 | O=c1[nH]c(=O)c2cn[nH]c2[nH]1
35 | 158 to 162 | O=C(O)C1CSC(c2ccccc2)N1 (mixture of isomers)
36 | 64 | O=C(c1cccc2ccccc12)C(Br)c1ccccc1 (configuration not stated)
37 | 113 to 115 | O=C(Oc1c(F)c(F)c(F)c(F)c1F)c1ccc(-c2ccccc2)nc1
38 | 239 to 243 | NNC(=O)C(=O)NN
39 | 99 to 102 | Cc1cc(I)cc(C)c1O
40 | 167 | CN(N=O)C1=CC(=O)C2(C)CCC1C2(C)C (configuration not stated)
41 | 68 to 71 | O=Cc1cnc2ccccc2c1
42 | 143 to 146 | COc1ccc(-c2cc(-c3ccc(OC)cc3)cc(-c3ccc(OC)cc3)c2)cc1
43 | 248 | CC(C)[C@H](NC(=O)CN)C(=O)O (H-Gly-Val-OH)
44 | -80 | CCCOCC(C)O (configuration not stated)
45 | 27 | CCCC(c1ccccc1)c1ccccc1
46 | 79.3 | COC(=O)CC(O)(CC(=O)OC)C(=O)OC
47 | -56 | CCCCCC=O
48 | 106 | CCCCCC(=O)Nc1ccc(Cl)c(Cl)c1
49 | 218 | Cc1ccc(Nc2ccc(Nc3ccc(C)cc3)c3c2C(=O)c2ccccc2C3=O)cc1
50 | 67 | O=C(C(=O)c1ccc(Cl)cc1)c1ccccc1
51 | 221 | N#CC(C#N)=C1Sc2nc3ccccc3nc2S1
52 | 84 | CC(=O)c1csc(-c2ccccc2)n1

Row | melting point [°C] | Structure (SMILES)
53 | -62 | Cc1ccccc1F
54 | 289 | N#CC(C#N)=C1C(=O)NN(c2ccccc2)C1=O
55 | 192 to 196 | CC12CCC(=O)CC1CCC1C2CCC2(C)C1CCC21OCCO1 (configuration not stated)
56 | 259 to 261 | COc1ccc(C[C@H](N)C(=O)O)cc1
57 | 134 | COC(=O)C1c2ccccc2C(=O)OC1c1ccc([N+](=O)[O-])cc1 (configuration not stated)
58 | 192 | COc1cc(C=CC(=O)O)ccc1OCc1ccccc1
59 | 35.4 to 39.6 | CCCCCCCCCCCCCCCCOCCOCCOCCOCCOCCOCCOCCOCCOCCOCCOCCOCCOCCOCCOCCOCCOCCOCCOCCOCCO
60 | 88.5 to 90 | CCOC(=O)c1csc(N2CCOCC2)n1
61 | 85 | O=C(OCC1c2ccccc2-c2ccccc21)Oc1c(F)c(F)c(F)c(F)c1F
62 | 254 to 258 | O=C(O)c1cc2cc(F)ccc2[nH]1
63 | 164 to 165 | O=C(C=Cc1ccc(-c2ccc(Br)cc2)o1)c1ccco1
64 | -61.5 | CC/C=C/CCO
65 | 91 to 93 | CCCC(=O)Oc1c[nH]c2ccc(Br)c(Cl)c12
66 | 51 | COC(=O)c1ccc(OC)nc1
67 | 211 | CN(C)c1ccc(C2C(C#N)=C(N)SC(N)=C2c2nc3ccccc3s2)cc1 (configuration not stated)
68 | 92.5 | O=[N+]([O-])c1cccc(F)c1O
69 | 111 | CC(=O)Nc1cc(Cl)c(F)cc1[N+](=O)[O-]
70 | 38 to 41 | O=Cc1ccccc1OCc1cccc(Cl)c1
71 | 176 | COc1nc2c(c(=O)n(C)c(=O)n2C)n1C
72 | 100 | OC12CCCCCC1c1ccccc12 (configuration not stated)
73 | 27 | CCCCCCCc1ccc(-c2ccccc2)cc1
74 | 206 to 210 | Cc1cc2occ(C#N)c(=O)c2cc1C
75 | 247 to 254 | O=C1OC(=O)c2cc([N+](=O)[O-])cc3cccc1c23
76 | 166 | COc1cc(C2OCC3C(c4ccc(OC(C)=O)c(OC)c4)OCC23)ccc1OC(C)=O (configuration not stated)
77 | 161 | CC(=O)N(Nc1ccc(-c2ccc([N+](=O)[O-])cc2)cc1)c1ccccc1
78 | 111 to 112 | COc1cc(CC(=O)O)c([N+](=O)[O-])cc1OC

Row | melting point [°C] | Structure (SMILES)
79 | 102 | CCOc1cccc(C(=O)NN)c1
80 | 152 | OC1OC(COCc2ccccc2)C(OCc2ccccc2)C(OCc2ccccc2)C1OCc1ccccc1 (configuration not stated)
81 | 65 | CC1(C)OC(=O)C2(CC2)C(=O)O1
82 | 71 | Cc1cc(C)c([N+](=O)[O-])cc1C
83 | 174 | O=C(Cc1ccccc1)C(Cc1ccccc1)=NNc1ccc([N+](=O)[O-])cc1
84 | 183 | CCOc1ccc(NS(=O)(=O)c2ccc(N)cc2)nn1
85 | 232 to 234 | CSc1sc(C(=O)O)c(-c2cccc(C(F)(F)F)c2)c1C#N
86 | 31 to 33 | Cc1ccc(C=O)c2ccccc12
87 | 233 to 235 | Cc1cc(C)n(N=Cc2ccccc2Cl)c(=O)c1C#N
88 | 74 | O=C(/C=C/c1ccc(OCCCCl)cc1)c1ccccc1
89 | 246 | C=C1C(=O)C23C4CC5C(C)(C)CCC(OC(C)=O)C5(C)C2C(OC(C)=O)CC1(O)C3OC(C)(C)O4 (configuration not stated)
90 | 211 | O=Cc1c[nH]c2ccc(Cl)cc12
91 | 109 to 114 | COc1ccc(C(=O)c2cccc(Cl)c2)cc1[N+](=O)[O-]
92 | 126 | CC(C)(C)c1cc(C(=O)O)n(Cc2ccccc2)n1
93 | 103 to 106 | COc1ccc(-c2ccc(S(=O)(=O)Cl)cc2)cc1
94 | 222 | Cc1c(C(=O)c2c[nH]n(C)c2=O)ccc(S(C)(=O)=O)c1C1=NOCC1
95 | 48 | COc1ccc(Cl)cc1I
96 | 148 | O=C(O)c1ccc(Cl)nc1Cl
97 | 83 | Cc1ccc2sc(S(=O)(=O)Cl)cc2c1
98 | 38 | N#Cc1ccc(C(F)(F)F)cc1
99 | 146 | CC(C)c1cc(Oc2ccccc2)cc(C(C)C)c1NC(=S)NC(C)(C)C
100 | 189 | CN(C)c1ccc(/C=C(/C#N)C(N)=S)cc1
101 | 107 to 108 | O=C1CCCN1c1ccc(S(=O)(=O)Cl)cc1
102 | 111 | CC(C)(C)c1cc(CC#N)cc(C(C)(C)C)c1O
103 | -56.1 | CCCCC(=O)OC(=O)CCCC

Row | Structure (SMILES) | melting point [°C]
104 | NC(=O)Cc1ccccc1 | 157
105 | O=[N+]([O-])c1ccc(Oc2ccc(C(F)(F)F)cc2Cl)cc1 | 68
106 | CN(C)CC(O)c1ccc(O)c(O)c1 (configuration not stated) | 149
107 | CNC(=O)Oc1ccccc1C(C)C | 94
108 | FC(F)(F)C(F)(C(F)(F)F)C(F)(C(F)(F)F)C(F)(F)F | -16.7
109 | c1ccc2c(c1)ccc1ccc3ccccc3c12 | 68
110 | C=C(C)C1Cc2c(ccc3c2OC2COc4cc(OC)c(OC)cc4C2C3=O)O1 (configuration not stated) | 176
111 | O=C(NC(=O)c1c(F)cccc1F)Nc1cc(Cl)c(OC(F)(F)C(F)C(F)(F)F)cc1Cl (configuration not stated) | 169
112 | O=[N+]([O-])OC(CO)CO | 54
113 | NC(=O)NN=CC[N+](=O)[O-] | 360
114 | C=CC1CN2CCC1CC2c1[nH]c2ccccc2c1CCO (configuration not stated) | 186
115 | Cc1cccc(N=Nc2ccc(N(C)C)cc2)c1 | 138
116 | C1CN2CCN3CCN4CCN1C2C43 (configuration not stated) | 30
117 | O=C(Cc1ccccc1)OCCc1ccccc1 | 26.5
118 | O=[N+]([O-])c1ccccc1C=Cc1cc(/C=C/c2ccccc2[N+](=O)[O-])c([N+](=O)[O-])cc1[N+](=O)[O-] | 291
119 | Cn1cc(-c2ccccc2)c(=O)c(-c2cccc(C(F)(F)F)c2)c1 | 154
120 | OC1CN2CCCC(O)C2C1O (configuration not stated) | 144
121 | C#CCN1C(=O)CN=C(c2ccccc2)c2cc(Cl)ccc21 | 141
122 | Clc1ccc2c(c1)Oc1ccc(Cl)cc1O2 | 202
